This is an account of results in paper PMC5268410, “Mode of Action of the Natural Insecticide, Decaleside Involves Sodium Pump Inhibition” (PLoS ONE, 2017).

Assay [1] addresses T1, purified Na^+, K^+ -ATPase (porcine cerebral cortex).
T1 construct: gene ATP1A1; commercial native enzyme purified from porcine cerebral cortex (Sigma); with Sodium/potassium-transporting ATPase subunit beta-1; Sodium/potassium-transporting ATPase subunit beta-2
Description: phosphate release from ATP, ouabain-inhibitable activity. The format is biochemical, Sus scrofa. The following applies: 1.5 mM ATP; Na+ 0.14 M, K+ 14 mM, Mg2+ 3 mM; 37°C; 30 min preincubation; competitive with ATP.

Assay [2] has the same target. Kind of assay: phosphate release from ATP. The settings on record: 1.5 mM ATP; Na+ 0.14 M, K+ 14 mM, Mg2+ 3 mM; 37°C. The class given is biochemical, Sus scrofa.

Turning to decaleside II, the IC50 in assay [1] was determined as 95 µM.
Still for that read-out and setting: as for decaleside I, the figure is 105 µM.
In turn, `C[C@@H]1O[C@@H](O[C@H]2C[C@@H](O)[C@]3(CO)[C@H]4[C@H](O)C[C@]5(C)[C@@H](C6=CC(=O)OC6)CC[C@]5(O)[C@@H]4CC[C@]3(O)C2)[C@H](O)[C@H](O)[C@H]1O` [Ouabain] gave an IC50 in assay [2] of 254 µM.
